One data set addresses PI3Ka (Homo sapiens (Human), UniProt P42336). Kind of data set: Z'-LYTE / Adapta kinase assay, PI3Ka. Type of data set: biochemical. Particulars: for inhibition at 0.1 µM: read-out: PI3Ka % Inh. @ 100 nM. In a few lines:
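Z'-LYTE FRET-peptide phosphorylation read as coumarin/fluorescein emission ratio (400 nm excitation); Adapta immunoassay detects ADP formation. 60-min kinase reaction, 60-min development, room temperature.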

Data set [1] in a line: Solubility determination (PBS 7.4, SIF, SGF). The format is physicochemical. Conditions: for solubility at 2 h: kinetic from dmso stock. How it is done: Preparation of stock solutions: The stock solutions of test compounds and control compound diclofenac were prepared in DMSO at the concentrations of 10 mM.
Simulated Gastric Fluid (SGF): An aqueous mixture including hydrochloric acid, sodium chloride, and pepsin (pH=1.2).
Simulated Intestinal Fluid (SIF): Prepared by dissolving 6.8 g of KH2PO4 into about 500 mL ultrapure water and adjust the solution to a pH 6.8 with 0.1 M NaOH. 10 g trypsin is then dissolved into ultrapure water. The two solutions are mixed well and diluted with ultrapure water to a final volume of 1000 mL.
485 μL of (SIF, SGF, PBS 7.4, FESSIF, or FESSGF) was added into each vial of the cap-less Solubility Sample plate. The assay was performed in duplicate. Add one stir stick to each vial and seal using a molded PTFE/Silicone plug. […] After completion of the 2 hours, plugs were removed and the stir sticks were removed using a big magnet, the samples from the Solubility Sample plate were transferred into the filter plate. Using the Vacuum Manifold, all the samples were filtered. Aliquot of 5 μL and 5 μL DMSO were taken from the filtrate followed by addition of 490 μL of a mixture of H2O and acetonitrile containing internal standard (1:1). A certain proportion of ultrapure water was used to dilute the diluent according to the peak shape. The dilution factor was changed according to the solubility values and the LC-MS signal response.
Preparation of 300 μM standards (STD): From the 10 mM DMSO STD plate, 6 μL was transferred into the remaining empty plate, and then 194 μL of DMSO was added to that plate to have a STD concentration of 300 μM. From the 300 μM DMSO STD plate, 5 μL DMSO STD and 5 μL SIF was transferred into the remaining empty plate, and then 490 μL of a mixture of H2O and acetonitrile containing internal standard (1:1) was added to that plate to have a final STD concentration of 3 μM. A certain proportion of ultrapure water was used to dilute the diluent according to the peak shape. The concentrations of the standard samples were changed according to the LC-MS signal response.
Procedure for sample analysis: The plate was placed into the well plate autosampler. The samples were evaluated by LC-MS/MS analysis.
Data analysis: All calculations were carried out using Microsoft Excel. The filtrate was analyzed and quantified against a standard of known concentration using LC coupled with mass spectral peak identification and quantitation. Solubility values of the test compound and control compound were calculated as follows: […]
Any value of the compounds that was not within the specified limits was rejected and the experiment was repeated.

Where [2] appears, read: aqueous buffer, PBS pH 7.4, 25° C., 2 hours, read-out: Solubility pH 7.4 PBS buffer.
Where [3] appears, read: simulated gastric fluid (SGF), simulated gastric fluid pH 1.2, 25° C., 2 hours, read-out: Solubility SGF.
Where [4] appears, read: simulated intestinal fluid (SIF), simulated intestinal fluid pH 6.8, 25° C., 2 hours, read-out: Solubility SIF.

Converted amounts (≈) assume the structure as drawn. Where two headings read alike, the source gives them in different places. A value given as a limit tells only on which side of the number the result lay.

Usually solubility stands for the concentration that dissolves in the medium under given conditions. In general, IC50 refers to the concentration that gives 50% inhibition. A higher IC50 goes with weaker potency.

Sequence of PI3Ka (P42336 whole entry): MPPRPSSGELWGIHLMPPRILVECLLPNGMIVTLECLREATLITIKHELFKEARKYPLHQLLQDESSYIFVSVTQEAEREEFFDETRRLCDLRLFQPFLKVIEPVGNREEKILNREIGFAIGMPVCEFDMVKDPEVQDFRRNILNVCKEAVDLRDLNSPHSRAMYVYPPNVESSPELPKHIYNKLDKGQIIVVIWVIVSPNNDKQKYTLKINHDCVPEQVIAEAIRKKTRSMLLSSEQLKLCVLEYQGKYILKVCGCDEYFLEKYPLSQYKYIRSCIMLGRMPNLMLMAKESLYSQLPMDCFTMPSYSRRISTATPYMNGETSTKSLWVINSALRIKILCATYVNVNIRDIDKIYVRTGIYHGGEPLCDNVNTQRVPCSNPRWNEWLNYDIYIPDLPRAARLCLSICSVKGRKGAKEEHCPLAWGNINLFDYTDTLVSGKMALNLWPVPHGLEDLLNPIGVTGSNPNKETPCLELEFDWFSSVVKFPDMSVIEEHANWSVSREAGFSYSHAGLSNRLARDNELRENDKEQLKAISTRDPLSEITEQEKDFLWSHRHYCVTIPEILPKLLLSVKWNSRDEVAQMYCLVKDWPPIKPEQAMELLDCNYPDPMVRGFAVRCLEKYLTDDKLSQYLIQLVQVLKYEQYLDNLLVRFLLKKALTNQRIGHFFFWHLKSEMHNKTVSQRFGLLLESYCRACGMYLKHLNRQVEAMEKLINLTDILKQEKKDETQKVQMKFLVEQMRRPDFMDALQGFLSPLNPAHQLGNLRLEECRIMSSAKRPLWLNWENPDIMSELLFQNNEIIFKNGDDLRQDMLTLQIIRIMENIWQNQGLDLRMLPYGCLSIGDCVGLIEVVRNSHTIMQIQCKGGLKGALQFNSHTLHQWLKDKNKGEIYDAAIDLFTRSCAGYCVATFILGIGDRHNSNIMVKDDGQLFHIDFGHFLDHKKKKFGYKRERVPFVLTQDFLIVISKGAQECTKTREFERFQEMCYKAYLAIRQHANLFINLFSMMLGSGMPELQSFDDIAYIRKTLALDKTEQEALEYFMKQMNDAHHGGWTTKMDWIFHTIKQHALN
Sequence of PI3Ka (P27986 whole entry partner): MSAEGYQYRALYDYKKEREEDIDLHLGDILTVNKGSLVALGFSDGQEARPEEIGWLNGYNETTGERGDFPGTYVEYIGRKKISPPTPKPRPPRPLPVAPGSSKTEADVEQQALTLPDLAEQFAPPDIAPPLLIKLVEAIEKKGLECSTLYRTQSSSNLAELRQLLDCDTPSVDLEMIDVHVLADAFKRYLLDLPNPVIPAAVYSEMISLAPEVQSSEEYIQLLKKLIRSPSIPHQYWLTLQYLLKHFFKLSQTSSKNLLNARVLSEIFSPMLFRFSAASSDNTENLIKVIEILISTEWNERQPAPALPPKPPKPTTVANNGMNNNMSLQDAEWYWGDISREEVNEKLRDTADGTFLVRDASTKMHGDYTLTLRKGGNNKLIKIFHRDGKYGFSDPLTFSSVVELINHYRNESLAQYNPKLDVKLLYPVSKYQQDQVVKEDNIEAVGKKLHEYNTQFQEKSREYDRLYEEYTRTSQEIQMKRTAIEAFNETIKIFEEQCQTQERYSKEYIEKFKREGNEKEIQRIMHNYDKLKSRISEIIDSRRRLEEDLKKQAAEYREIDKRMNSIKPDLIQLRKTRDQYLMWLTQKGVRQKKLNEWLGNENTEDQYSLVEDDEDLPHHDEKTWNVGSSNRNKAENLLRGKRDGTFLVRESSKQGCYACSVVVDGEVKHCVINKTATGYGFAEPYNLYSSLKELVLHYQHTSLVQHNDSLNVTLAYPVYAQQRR

In the case of `CS(=O)(=O)Nc1cc(-c2ccc3ncnc(NCc4ccccc4)c3c2)cnc1Cl` [Comparative Compound 1, N-[5-[4-(benzylamino)quinazolin-6-yl]-2-chloro-3-pyridyl]methanesulfonamide, reference compound], the “PI3Ka IC50 (nM)” value on PI3Ka is reported as “++++ (value is 2 nM or less)”. The inhibition at 0.1 µM at PI3Ka was over 90%. Moreover, the solubility at 2 h in data set [1] (setting [2]) was at most 20 µM; in data set [1] (setting [3]) it was over 200 µM; in data set [1] (setting [4]), at most 20 µM.
For `CS(=O)(=O)Nc1cc(-c2ccc3ncnc(Nc4ccc(F)c(Cl)c4)c3c2)cnc1Cl` [Comparative Compound 2, reference compound], on PI3Ka, the “PI3Ka IC50 (nM)” value was “++++ (value is 2 nM or less)”. In addition, on PI3Ka, the inhibition at 0.1 µM is over 90%. Further, the results for the solubility at 2 h in data set [1] (setting [2]), in data set [1] (setting [3]) and in data set [1] (setting [4]) were at most 20 µM, over 200 µM and at most 20 µM, respectively.
With `CS(=O)(=O)Nc1cncc(-c2ccc3ncnc(NCc4ccccc4)c3c2)c1` [Comparative Compound 3, reference compound], on PI3Ka, the “PI3Ka IC50 (nM)” value is “++ (value is greater than 20 nM and less than or equal to 200 nM)”. Also, the “PI3Ka % Inh. @ 100 nM” value at PI3Ka (100 nM) was “*** (value is greater than 80% and less than or equal to 90%)”. Besides, the “Solubility SIF” value in data set [1] (simulated intestinal fluid pH 6.8, 25° C., 2 hours) is on record as “* (value is 20 μM or less)”.
In turn, `C[C@@H](Nc1ncnc2ccc(-c3cnc(Cl)c(NS(C)(=O)=O)c3)cc12)c1ccccc1` [Compound 2R, N-(2-chloro-5-(4-((1R-phenylethyl)amino)quinazolin-6-yl)pyridin-3-yl)methanesulfonamide] gave an IC50 against PI3Ka of 2 to 20 nM. At PI3Ka, the inhibition at 0.1 µM is over 90%. Further, the “improvement in solubility compared to Comparative Compounds 1-3” value is reported as “same improvement in solubility” in data set [1] (PBS buffer) and “at least 5 times” in data set [1] (simulated intestinal fluid). Also, the figures for the solubility at 2 h in data set [1] (setting [2]), in data set [1] (setting [3]) and in data set [1] (setting [4]) were 100 to 200 µM (≈ 45.4 to 90.8 µg/mL), over 200 µM and 100 to 200 µM (≈ 45.4 to 90.8 µg/mL), respectively.
For `C[C@H](Nc1ncnc2ccc(-c3cnc(Cl)c(NS(C)(=O)=O)c3)cc12)c1ccccc1` [Compound 2S, N-(2-chloro-5-(4-((1S-phenylethyl)amino)quinazolin-6-yl)pyridin-3-yl)methanesulfonamide], at PI3Ka, the “PI3Ka IC50 (nM)” value is listed as “++++ (value is 2 nM or less)” and the inhibition at 0.1 µM is over 90%. In addition, the “improvement in solubility compared to Comparative Compounds 1-3” value in data set [1] (simulated intestinal fluid) is “at least 5 times”. The solubility at 2 h in data set [1] (setting [4]) was 100 to 200 µM (≈ 45.4 to 90.8 µg/mL).
In the case of `CC(Nc1c(C#N)cnc2ccc(-c3cnc(N)nc3)cc12)c1ccccc1` (centres unmarked) [Compound 53, 6-(2-aminopyrimidin-5-yl)-4-(1-phenylethylamino) quinoline-3-carbonitrile], on PI3Ka, the “PI3Ka IC50 (nM)” value was “+ (value is greater than 200 nM)” and the inhibition at 0.1 µM lay in the range of 10 to 80%. Also, the solubility at 2 h in data set [1] (setting [4]) was 20 to 100 µM (≈ 7.33 to 36.6 µg/mL).
For `C[C@@H](Nc1c(C#N)cnc2ccc(-c3cnc(N)nc3)cc12)c1ccccc1` [Compound 53R, (R)-6-(2-aminopyrimidin-5-yl)-4-((1-phenylethyl)amino)quinoline-3-carbonitrile] the same measures were “+ (value is greater than 200 nM)”, 10 to 80% and 20 to 100 µM (≈ 7.33 to 36.6 µg/mL).
Regarding `CC(Nc1c(C#N)cnc2ccc(-c3cnc4[nH]ncc4c3)cc12)c1ccccc1` (centres unmarked) [Compound 54, 4-(1-phenylethylamino)-6-(1H-pyrazolo[3,4-b]pyridin-5-yl)quinoline-3-carbonitrile], at PI3Ka, the “PI3Ka IC50 (nM)” value is “+ (value is greater than 200 nM)” and the inhibition at 0.1 µM fell in the range of 10 to 80%. Also, in data set [1] (setting [4]), the solubility at 2 h was at most 20 µM.
On PI3Ka, `C[C@@H](Nc1ncnc2ccc(-c3cnc(Cl)c(NS(C)(=O)=O)c3)cc12)c1ccc(F)cc1` [Compound 111R, N-(2-chloro-5-(4-((1R-(4-fluorophenyl)ethyl)amino)quinazolin-6-yl)pyridin-3-yl)methanesulfonamide] had an IC50 of 2 to 20 nM. On PI3Ka, the inhibition at 0.1 µM was over 90%. Besides, the solubility at 2 h was 20 to 100 µM (≈ 9.44 to 47.2 µg/mL) in data set [1] (setting [2]), over 200 µM in data set [1] (setting [3]) and 20 to 100 µM (≈ 9.44 to 47.2 µg/mL) in data set [1] (setting [4]).

The values are drawn from patent publication US11673876B2, “Substituted aminobenzyl heteroaryl compounds as EGFR and/or PI3K inhibitors” (Mekanistic Therapeutics LLC, priority 2020, dated 2023).
